Assay results from patent US8461299B2, “Peptide capable of binding to immunoglobulin” (MMT Co., Ltd., priority 2007, dated 2013).

Key:
[1] = system: binding between human C1q protein and alkaline phosphatase (ALP)-labeled human immunoglobulin (IgG); assay: Inhibition of the binding between an immunoglobulin and C1q (C1q spotted on nitrocellulose membrane, ALP-labeled IgG detection); details: peptide 500 μg/ml; 400 ng human C1q per spot; ALP-labeled human IgG diluted 1000-fold; room temperature, one hour
Text: It was investigated whether or not the 9 residue-peptide CKVPGLYYF (SEQ ID NO: 2) considered to be necessary for the binding between C1q and an immunoglobulin (IgG) inhibits the binding between C1q and an immunoglobulin. Peptide (R2) having the amino acid sequence of SEQ ID NO: 2, peptide (R1) having a shorter amino acid sequence than this peptide, PGLYYF (SEQ ID NO: 1), as well as peptide (R3) having the amino acid sequence SGKFTCKVPGLYYFT (SEQ ID NO: 3), peptide (R4) having the amino acid sequence FTCKVPGLYYFTYHA (SEQ ID NO: 4), peptide (R5) having the amino acid sequence STGKFTCKVPGLYYF (SEQ ID NO: 5), and peptide (R6) having the amino acid sequence CKVPGLYYFVYHASH (SEQ ID NO: 7), which contain the amino acid sequence indicated by SEQ ID NO: 2, were prepared by outsourcing to GL Biochem (Shanghai). Each peptide was dissolved in dimethylsulfoxide so as to reach a concentration of 10 mg/ml and stored.
Human C1q protein (manufactured by Carbiochem) was dissolved in 10 mM HEPES, 300 mM NaCl and 40% glycerol (pH 7.2) to prepare a 200 μg/ml human C1q protein solution.
The human C1q protein solution was spotted at 2 μl (400 ng) each onto a 5 mm×15 mm size nitrocellulose membrane (Hybond C; manufactured by Amersham), which was air-dried at room temperature for approximately one hour. The nitrocellulose membrane was soaked in TBS, incubated for 5 minutes, and blocked at room temperature for one hour using TBS (20 mM Tris-HCl pH 7.5, 150 mM NaCl) containing 5% blocking agent (Amersham ECL blocking reagent; manufactured by GE Healthcare). After a slight wash in TBS, the membrane was soaked in 20 μl of a mixed solution of alkaline phosphatase (ALP)-labeled human immunoglobulin (IgG) (manufactured by BECKMAN COULTER) diluted 1000-fold in TBS and each peptide so as to reach a concentration of 500 μg/ml, and let it react at room temperature for one hour. After a slight wash in TTBS solution (TBS added with Tween 20 to a final concentration of 0.05%), the membrane was washed in the same solution for 10 minutes, shaking three times.
After the nitrocellulose membrane was washed slightly in ALP coloring buffer (Tris-HCl containing 100 mM NaCl, 5 mM MgCl2, pH 9.5), it was soaked in 30 μl ALP coloring buffer containing BCIP/NBT solution (manufactured by Promega), and colored at room temperature for 10 minutes. Upon obtaining a staining image, the nitrocellulose membrane was soaked in a sufficient amount of distilled water to wash away the coloring buffer. After washing the nitrocellulose membrane was air-dried and the staining image was captured using Multi Gauge (FUJIFILM). […]

[2] = system: Type III allergic (Arthus) reaction-induced rat; assay: Type III allergic (Arthus) reaction model, Evans blue dye leakage; assay type: in vivo
Method: The test for peptide R1, R2 and R5 using 64 male rats of the Slc:Wistar strain, which were 7 weeks old was carried out in twice, i.e. for each administration method (intraperitoneal administration and tail vein administration). Acclimation was carried out by giving normal solid chow CRF-1 for 9 days or longer. The day prior to administration, the dorsal hair of the animal was shaved, and on the administration day, a solution of OVA+Evans blue dye mix was administered into the tail vein. Each peptide solution was administered, 30 minutes after administration of a solution of OVA+Evans blue dye mix if administered intraperitoneally or 50 minutes after if administered into the tail vein, respectively. Regarding intracutaneous administration of anti-OVA solution, the solution was intradermally administered to the dorsal region of the animal at a dose of 0.1 ml/site, 30 minutes after administration of the test substance in case of intraperitoneal administration or 10 minutes after in case of intravenous administration, to induce locally an Arthus reaction. Four hours after the induction, the animals were euthanized, the blood was removed thoroughly, and then the dorsal skin was removed. The Arthus reaction site on the removed skin was punched out, and the Evans blue dye was extracted from this skin overnight. The amount of dye leaked was quantified by measuring the absorbance for Evans blue dye with a spectrophotometer and using a calibration curve (note that, regarding experimental methods used in Example 4, reference should be made to H. Okamoto, Y. Iwahisa and M. Terasawa: Suppression of the Arthus reaction by Y-24180, a potent and specific antagonist of platelet-activating factor. Agents Actions, 35: 149-158 (1992)).
The predetermined weighed amounts of each peptide (peptides R1, R2 and R5) were dissolved in physiological saline respectively to obtain a 20 mg/ml solution. A 2 mg/ml solution was prepared by diluting 10-fold a 20 mg/mL solutions with physiological saline. 5 mg/ml solutions were prepared by dissolving each peptide in predetermined weighed amounts in physiological saline to obtain preparation solutions.
A solution of OVA+Evans blue dye mix was administered into the tail vein at 2 ml/kg. Each peptide solution was administered, 30 minutes after administration of the solution of OVA+Evans blue dye mix if administered intraperitoneally or 50 minutes after if administered into the tail vein, respectively. Regarding intracutaneous administration of anti-OVA solution, the solution was intradermally administered to the dorsal region of the animal at a dose of 0.1 ml/site, 30 minutes after administration of the test substance in case of intraperitoneal administration or 10 minutes after in case of intravenous administration, to induce locally an Arthus reaction. Intracutaneous administration was such that there were two PBS sites and two ant-OVA solution sites per animal. Four hours after the induction, the animals were euthanized by decapitation under ether anesthesia, the blood was removed thoroughly, and then the dorsal skin was removed. […]
The skin strip that was punched out with a punch was slit at several locations, soaked in 2 ml of dye extraction solution, and shaken and agitated for 10 minutes. […] The amount of dye leaked was calculated from the dye amount calibration curve.
The group mean values (mean)±standard deviation (SD) were calculated for the body weight measurement values and the amounts of dye leaked. […]

[3] = system: monoclonal antibody cocktail-induced arthritis mice; assay: Arthritis inhibitory action on an arthritis-induced mouse-2 (clinical score, general state, body weight); assay type: in vivo; details: 10 mg/kg intraperitoneally twice daily from day 0 for 14 days
Method: The arthritis inhibitory action of the peptides indicated in Example 2 as R1, R2 and R5 was examined using monoclonal antibody cocktail-induced arthritis mice. An arthritis-inducing monoclonal antibody cocktail was intravenously administered at 2 mg/individual, and three days later, LPS was intraperitoneally administered at 50 μg/individual to the mice to induce arthritis. For each peptide, from the day the arthritis-inducing monoclonal antibody cocktail was administered (day 0), continuous administration was carried out at 10 mg/kg each, twice daily, for 14 days, and the arthritis inhibitory action was examined by clinical scoring. Note that the experiments were carried out by similar methods to Example 3 (1).
Based on the animal body weight, the required amount of each peptide was calculated. A solution was prepared with a 0.5% methyl cellulose solution so as to reach a concentration of 1 mg/ml, and was stored refrigerated.
With the day the arthritis-inducing monoclonal antibody cocktail was administered as day 0, the animal's body weight was measured on day 0, 3, 6, 9, 12 and 14 during the test period. General state observation was carried out daily.
The body weight was measured on the day prior to starting administration and randomly assigned with a grouping software so that the average body weight value of each group was approximately the equal. To twenty 7 week-old mice, an arthritis-inducing monoclonal antibody cocktail were intravenously administered at 2 mg/individual on day 0, and LPS was intraperitoneally administered at 50 μg/individual on day 3.
Each peptide solution was intraperitoneally administered twice daily, in the morning and in the afternoon, from day 0. As a control, 0.5% methyl cellulose solution was intraperitoneally administered twice daily from day 0. For administration, a syringe needle (26G, Terumo) and a syringe barrel (1.0 ml capacity, Terumo) were used. The dosage was 10 ml/kg. […]

[4] = system: monoclonal antibody cocktail-induced arthritis mice (BALB/c Cr Slc (SPF)); assay: Arthritis inhibitory action on an arthritis-induced mouse-1 (clinical score); assay type: in vivo
Method: Using monoclonal antibody cocktail-induced arthritis mice (BALB/c Cr Slc (SPF)), the arthritis inhibitory action of the peptide indicated as R5 in Example 2 was examined. Arthritis was induced by intravenous administration of 2 mg/individual of an arthritis-inducing monoclonal antibody cocktail, followed by intraperitoneal administration of 50 μg/individual of Lipopolysaccharide (LPS) three days later. From the day following LPS administration (day 4) until day 14, 10 mg/kg of peptide. R5 was intraperitoneally administered once daily or twice daily. The positive control agent methotrexate was orally administered once daily at 0.1 mg/kg from day 4. The clinical score of the extremities was measured on even days from day 0 to day 14. Under anesthesia, blood was removed with heparin-containing physiological saline, ice-cold 4% paraformaldehyde solution was continuously injected to perfusion-fix the whole body. After perfusion-fixation subsequent, both hind limbs knee joints (the center of the femur and the center of the tibia were cut; skin and muscles were removed) and heel joints (from the center of the tibia to the toe tips) were excised and further immersion-fixed with 4% paraformaldehyde solution overnight (4° C.). Thereafter, both knee and heel joints were transferred to 50 mM PBS (4° C.), then soft x-ray radiography of the heel articulations were taken from two directions (internal side direction and upper side direction).
Based on the animal body weight, the required amount was calculated for the peptide. A peptide solution was prepared with a 0.5% methyl cellulose solution so as to reach a concentration of 1 mg/ml, and the prepared peptide solution was stored refrigerated. […]
With the day the arthritis-inducing monoclonal antibody cocktail was administered as day 0, the animal's body weight was measured on day 0, 3, 6, 9, 12 and 14 during the test period. […]

[5] = intraperitoneal administration, 10 mg/kg or 100 mg/kg
[6] = tail vein administration, 10 mg/kg

Row | Substance | inhibition of the binding between C1q and an immunoglobulin (IgG) [1] | inhibitory action on immune-complex disease (amount of dye leaked) [2, 5] | inhibitory action on immune-complex disease (amount of dye leaked) [2, 6] | arthritis inhibitory action (clinical score) [3] | arthritis inhibition (clinical score) ([4]; 10 mg/kg intraperitoneally once daily or twice daily, day 4 until day 14) | difference in effectiveness between once daily administration and twice daily administration ([4]; 10 mg/kg intraperitoneally, day 4 until day 14) | level of arthritis inhibition compared with methotrexate ([4]; peptide 10 mg/kg intraperitoneally, methotrexate 0.1 mg/kg orally once daily from day 4)
1 | CKAPGLYYF (Immunoglobulin binding peptide) [R10] | inhibit |  |  |  |  |  | 
2 | CKVPGLYYF (Immunoglobulin binding peptide) [R2] | inhibited | clear and sufficient inhibitory action | clear and sufficient inhibitory action | Arthritis inhibitory action was observed |  |  | 
3 | PGLYYF (Immunoglobulin binding peptide) [R1] | inhibited | clear and sufficient inhibitory action | clear and sufficient inhibitory action | Arthritis inhibitory action was observed |  |  | 
4 | STAKFTCKVPGLYYF (Immunoglobulin binding peptide) [R11] | inhibit |  |  |  |  |  | 
5 | STGKFTCKVPGLYYF (Immunoglobulin binding peptide) [R5] |  | clear and sufficient inhibitory action |  | Arthritis inhibitory action was observed | an effect on arthritis inhibition was observed | no significant difference | higher than that of methotrexate
